# Measurements published in paper PMC6512958 (Hypertension (Dallas, Tex. : 1979), 2019).
# What was measured:
# normal canines = format: in vivo, male mongrel dogs; details: IV infusion 8.66 pmol/kg/min
# [1] = cited from earlier work
# [2] = test system: diabetic mice and rats overexpressing the mouse Ren2-gene; details: long-term treatment, cited from earlier work
# human MasR = assay: cAMP production in HEK293 cells overexpressing human MasR; format: cell-based; details: 10^-7, 10^-6 and 10^-5 M, 10 min; RIA; vs no treatment; Figure 2B
# rodents = details: ANG1-7/MasR, rodents / diet-induced obesity; cited from earlier work
# HTN = details: cited from earlier work
# humans with stable HF = details: chronic subcutaneous BNP, human HF; cited from earlier work
# human pGC-A = assay: cGMP production in HEK293 cells overexpressing human pGC-A; format: cell-based; details: 10^-10, 10^-8 and 10^-6 M, 10 min; RIA; vs no treatment; Figure 2A
substance,measurement,setting,value
Angiotensin 1-7 [ANG1–7],reduction in MAP compared with BNP and NPA7,normal canines; Figure 4A,modest
same,"mean arterial pressure (MAP), during drug infusion","normal canines; n=5 (ANG1-7), Figure 4A",did not reduce MAP
same,half-life time,[1],extremely short
same,in vivo degradation,[1],rapid in vivo degradation
same,"cardiomyocyte hypertrophy, apoptosis and fibrosis",[2]; diabetic mice and rats overexpressing the mouse Ren2-gene,prevented
same,cardiac function in diabetic mice,[2],significantly improved
same,cAMP production (MasR activation),human MasR,significantly increasing concentrations of cAMP production
same,obesity-induced HTN and brown adipocyte differentiation,rodents,protection from obesity-induced HTN in rodents and induction of brown adipocyte differentiation
sacubitril/valsartan,efficacy in HTN,HTN,demonstrated efficacy in HTN
B-type natriuretic peptide [BNP],mean arterial pressure (MAP),"normal canines; BNP n=5, NPA7 n=6, Figure 4A",reduced MAP significantly
same,symptoms and myocardial structure and function,humans with stable HF,improved symptoms and myocardial structure and function
same,cGMP production (pGC-A activation),human pGC-A,significantly increasing concentrations of cGMP production
